Test results: patent US11414424B2, “Cardiac sarcomere inhibitors” (Cytokinetics, Inc., priority 2018, dated 2022)

System: bovine cardiac myofibrils
Assay: Myofibril assay: PK/LDH-coupled steady-state ATPase activity of skinned bovine cardiac myofibrils
Assay type: biochemical
Settings: Ca2+ activating to 75% of maximal rate
How it was run: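 Steady-state ATPase of detergent-skinned bovine left-ventricular myofibrils (1 mg/mL), PK/LDH-coupled NADH read at 340 nm, in PIPES/MgCl2 buffer pH 6.8 with 50 μM ATP, 0.6 mM EGTA and CaCl2 set for 50% or 75% activation. Inhibition of activity measured.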

| SMILES | CDMF75 IC15 |
| --- | --- |
| CNc1ccccc1N1CC2(C1)C(=O)N(c1ccc(C#N)cc1F)CC(=O)N2Cc1ccc(C(F)(F)F)cc1 [Compound 535, 3-fluoro-4-(2-(2-(methyl-amino)phenyl)-6,9-dioxo-5-(4-(trifluoromethyl)-benzyl)-2,5,8-triazaspiro-[3.5]nonan-8-yl)benzonitrile] | 0.3 µM |
| CNC(=O)N1CC2(C1)C(=O)N(c1ccc(C#N)cc1F)CC(=O)N2Cc1ccc(C(F)(F)F)cc1 [Compound 169, 8-(4-cyano-2-fluorophenyl)-N-methyl-6,9-dioxo-5-(4-(trifluoromethyl)benzyl)-2,5,8-triazaspiro[3.5]nonane-2-carboxamide] | 0.2 µM |
| O=C1C(C2CC(O)C2)N(Cc2ccc(C(F)(F)F)cc2)C(=O)CN1c1ncc(Cl)cc1F (single isomer, unassigned) [Compound 740A, 1-(5-chloro-3-fluoropyridin-2-yl)-3-(3-hydroxycyclobutyl)-4-(4-(trifluoromethyl)benzyl)piperazine-2,5-dione] | 1.1 µM |
| Cc1cc(Cl)cnc1N1CC(=O)N(Cc2ccc(F)cc2)C(C2COC2)C1=O (stereo not shown) [Compound 714, 1-(5-chloro-3-methylpyridin-2-yl)-4-(4-fluorobenzyl)-3-(oxetan-3-yl)piperazine-2,5-dione] | 12.4 µM |
| CNC(=O)N1CC2(C1)C(=O)N(c1ccc(C#N)c(C)c1)CC(=O)N2Cc1ccc(C(F)(F)F)cc1 [Compound 167, 8-(4-cyano-3-methyl-phenyl)-N-methyl-6,9-dioxo-5-(4-(trifluoromethyl)-benzyl)-2,5,8-triazaspiro-[3.5]nonane-2-carboxamide] | 1.3 µM |
| CC(=O)N1CC2(C1)C(=O)N(c1ccc(C#N)c(F)c1)CC(=O)N2Cc1ccc(C(F)(F)F)cc1 [Compound 197, 4-(2-acetyl-6,9-dioxo-5-(4-(trifluoromethyl)benzyl)-2,5,8-triazaspiro[3.5]nonan-8-yl)-2-fluorobenzonitrile] | 2.7 µM |
| Cc1ccc(CN2C(=O)CN(c3ncc(Cl)cc3F)C(=O)C2C2COC2)cc1F (stereo not shown) [Compound 664, 1-(5-chloro-3-fluoropyridin-2-yl)-4-(3-fluoro-4-methylbenzyl)-3-(oxetan-3-yl)piperazine-2,5-dione] | 2.9 µM |
| Cc1ccc(N2CC3(C2)C(=O)N(C(C)C)CC(=O)N3Cc2ccc(Cl)cc2)cn1 [Compound 14, 5-(4-chlorobenzyl)-8-isopropyl-2-(6-methyl-pyridin-3-yl)-2,5,8-triazaspiro[3.5]nonane-6,9-dione] | 6.0 µM |
| CC(C)N1CC(=O)N(Cc2ccc(Cl)cc2)C(c2ccc(C(F)(F)F)cc2)C1=O (stereo not shown) [Compound 314, 4-(4-chlorobenzyl)-1-isopropyl-3-(4-(trifluoro-methyl)phenyl)piperazine-2,5-dione] | 8.4 µM |
| CC(C)N1CC(=O)N(Cc2ccc(Cl)cc2)C2(CC(=O)N(c3ccccn3)C2)C1=O (stereo not shown) [Compound 332, 6-(4-chlorobenzyl)-9-isopropyl-2-(pyridin-2-yl)-2,6,9-triazaspiro[4.5]decane-3,7,10-trione] | 16.6 µM |
| CC(C)N1CC(=O)N([C@H](C)c2ccc(C(F)(F)F)cc2)C2(CN(c3ccccc3)C2)C1=O [Compound 141, (R)-8-isopropyl-2-phenyl-5-(1-(4-(trifluoromethyl)-phenyl)ethyl)-2,5,8-triazaspiro[3.5]nonane-6,9-dione] | 10.7 µM |
| COC(=O)N1CC2(C1)C(=O)N(c1ncc(Cl)cc1F)CC(=O)N2[C@@H](C)c1ccc(C(F)(F)F)cc1 [Compound 615, methyl (S)-8-(5-chloro-3-fluoropyridin-2-yl)-6,9-dioxo-5-(1-(4-(trifluoro-methyl)phenyl)ethyl)-2,5,8-triazaspiro[3.5]-nonane-2-carboxylate] | 1.3 µM |
| CC(=O)N1CC(C2C(=O)N(c3ncc(Cl)cc3F)CC(=O)N2Cc2ccc(C(F)(F)F)cc2)C1 (stereo not shown) [Compound 643, 3-(1-acetylazetidin-3-yl)-1-(5-chloro-3-fluoropyridin-2-yl)-4-(4-(trifluoro-methyl)benzyl)piperazine-2,5-dione] | 5.8 µM |
| CC(C)N1CC(=O)N(Cc2ccc(C(F)(F)F)cc2)C2(CCN(c3cc(C(N)=O)ccn3)C2)C1=O (stereo not shown) [Compound 89, 2-(9-isopropyl-7,10-dioxo-6-(4-(trifluoromethyl)-benzyl)-2,6,9-triazaspiro[4.5]decan-2-yl)isonicotinamide] | 3.3 µM |
| COC(=O)c1cccc(N2CC3(C2)C(=O)N(c2ccc(C#N)cc2F)CC(=O)N3Cc2ccc(C(F)(F)F)cc2)c1 [Compound 533, methyl 3-(8-(4-cyano-2-fluorophenyl)-6,9-dioxo-5-(4-(trifluoromethyl)benzyl)-2,5,8-triazaspiro[3.5]nonan-2-yl)benzoate] | 0.3 µM |
| CC(C)N1CC(=O)N(Cc2ccc(C(F)(F)F)cc2)C2(CCN(C(=O)NC(C)(C)C)C2)C1=O (stereo not shown) [Compound 112, N-(tert-butyl)-9-isopropyl-7,10-dioxo-6-(4-(trifluoromethyl)benzyl)-2,6,9-triazaspiro[4.5]-decane-2-carboxamide] | 33.0 µM |

| SMILES | CDMF75 IC15 |
| --- | --- |
| CC(=O)N1CC(C2C(=O)N(c3ncc(Cl)cc3F)CC(=O)N2Cc2ccc(Cl)cc2)C1 (stereo not shown) [Compound 644, 3-(1-acetylazetidin-3-yl)-1-(5-chloro-3-fluoropyridin-2-yl)-4-(4-chlorobenzyl)-piperazine-2,5-dione] | 6.8 µM |
| O=C1CN(c2ncc(Cl)cc2F)C(=O)C2(CC2)N1Cc1ccc(Cl)cc1 [Compound 577, 7-(5-chloro-3-fluoropyridin-2-yl)-4-(4-chlorobenzyl)-4,7-diazaspiro[2.5]octane-5,8-dione] | 0.9 µM |
| CC(C)N1CC(=O)N(Cc2ccc(Cl)cc2)C2(CN(c3ccccc3)C2)C1=O [Compound 2, 5-(4-chlorobenzyl)-8-isopropyl-2-phenyl-2,5,8-triazaspiro[3.5]nonane-6,9-dione] | 1.8 µM |
| CCN1CC(=O)N(Cc2ccc(C(F)(F)F)cc2)C2(CN(c3ccc(C#N)cn3)C2)C1=O [Compound 57, 6-(8-ethyl-6,9-dioxo-5-(4-(trifluoromethyl)benzyl)-2,5,8-triazaspiro[3.5]-nonan-2-yl)nicotinonitrile] | 33.3 µM |
| C[C@@H](c1ccc(C(F)(F)F)cc1)N1C(=O)CN(c2ncc(Cl)cc2F)C(=O)C12CN(CC(F)F)C2 [Compound 593, (S)-8-(5-chloro-3-fluoro-pyridin-2-yl)-2-(2,2-difluoroethyl)-5-(l-(4-(trifluoromethyl)phenyl)-ethyl)-2,5,8-triazaspiro-[3.5]nonane-6,9-dione] | 2.3 µM |
| NC(=O)C12CC(C3C(=O)N(c4ncc(Cl)cc4F)CC(=O)N3Cc3ccc(C(F)(F)F)cc3)(C1)C2 (stereo not shown) [Compound 783, 3-(4-(5-chloro-3-fluoro-pyridin-2-yl)-3,6-dioxo-1-(4-(trifluoromethyl)-benzyl)piperazin-2-yl)bicyclo[1.1.1]pentane-1-carboxamide] | 3.08 µM |
| CC(=O)N1CC2(C1)C(=O)N(c1ncc(C#N)cc1F)CC(=O)N2Cc1ccc(C(F)(F)F)cc1 [Compound 530, 6-(2-acetyl-6,9-dioxo-5-(4-(trifluoromethyl)benzyl)-2,5,8-triazaspiro[3.5]nonan-8-yl)-5-fluoronicotinonitrile] | 4.7 µM |
| COc1cnc(N2CC(=O)N(Cc3ccc(Cl)c(F)c3)C(C3COC3)C2=O)c(F)c1 (stereo not shown) [Compound 772, 4-(4-chloro-3-fluoro-benzyl)-1-(3-fluoro-5-methoxypyridin-2-yl)-3-(oxetan-3-yl)piperazine-2,5-dione] | 7.7 µM |
| C#Cc1ccc(N2CC(=O)N(Cc3ccc(C4(C(F)(F)F)N=N4)cc3)C3(CN(C(=O)NC)C3)C2=O)c(F)c1 [Compound 178, 8-(4-ethynyl-2-fluoro-phenyl)-N-methyl-6,9-dioxo-5-(4-(3-(trifluoromethyl)-3H-diazirin-3-yl)benzyl)-2,5,8-triazaspiro[3.5]nonane-2-carboxamide] | 0.8 µM |
| O=C1C(C2CC(O)C2)N(Cc2ccc(C(F)(F)F)cc2)C(=O)CN1c1ncc(Cl)cc1F (single isomer, unassigned) [Compound 740D, 1-(5-chloro-3-fluoropyridin-2-yl)-3-(3-hydroxycyclobutyl)-4-(4-(trifluoromethyl)benzyl)piperazine-2,5-dione] | >39 µM |
| O=C1CN(c2ccc(Cl)cc2F)C(=O)C2(COC2)N1Cc1ccc(F)cc1 [Compound 799, 8-(4-chloro-2-fluoro-phenyl)-5-(4-fluorobenzyl)-2-oxa-5,8-diazaspiro-[3.5]nonane-6,9-dione] | 3.9 µM |
| O=C1C(C2CC(O)C2)N(Cc2ccc(F)cc2)C(=O)CN1c1ccc(Cl)cc1F (single isomer, unassigned) [Compound 866B, 1-(4-chloro-2-fluorophenyl)-4-(4-fluorobenzyl)-3-(3-hydroxycyclobutyl)piperazine-2,5-dione] | >39 µM |
| CC(C)N1CC(=O)N(Cc2ccc(Cl)cc2)C(c2ccc(F)cc2)C1=O (stereo not shown) [Compound 311, 4-(4-chlorobenzyl)-3-(4-fluorophenyl)-1-isopropylpiperazine-2,5-dione] | 5.9 µM |
| O=C1C(C2COC2)N(Cc2ccc(C(F)(F)F)cc2)C(=O)CN1c1ncc(Cl)cc1F (single isomer, unassigned) [Compound 861B, 1-(5-chloro-3-fluoropyridin-2-yl)-3-(oxetan-3-yl)-4-(4-(trifluoromethyl)benzyl)piperazine-2,5-dione] | 5.8 µM |
| Cc1cc(Cl)cnc1N1CC(=O)N(Cc2ccc(F)c(F)c2)C(C2COC2)C1=O (stereo not shown) [Compound 720, 1-(5-chloro-3-methyl-pyridin-2-yl)-4-(3,4-difluorobenzyl)-3-(oxetan-3-yl)piperazine-2,5-dione] | 9.2 µM |
